In brackets after ≈: the same amount, converted by molar mass.
Assays:
[1] = system: Streptococcus pneumoniae IID 553; experiment: In vivo antibacterial test, experimental infection in mouse; conditions: Streptococcus pneumoniae IID 553 infection (intraperitoneal), male ICR mice 26±1 g, drug orally, 7 days observation, probit analysis
Protocol: (§1) The in vivo antibacterial activity of 14-hydroxy-6-O-methylerythromycin A was measured by effect of treatment on experimental infectious diseases in mouse. 6-O-methylerythromycin A and erythromycin A were used as comparative drugs. Staphylococcus aureus BB and Streptococcus pneumoniae IID 553 were used as experimental infectious diseases of mouse. Ten male ICR mice, weighing 26±1 g, were used for each group to a different concentration of one drug. The bacteria were administered intraperitoneally to each groups of […] for infection. 14-hydroxy-6-O-methylerythromycin A, 6-O-methylerythromycin A and erythromycin A were administered orally to different groups of mice. After observing for 7 days, ED50 value was calculated from the number of mice serviving.
(§2) The ED50 values having 95% confidence limits were estimated by probit analysis.

[2] = system: Staphylococcus aureus BB; experiment: as above; conditions: Staphylococcus aureus BB infection (intraperitoneal), male ICR mice 26±1 g, drug orally, 7 days observation, probit analysis
Protocol: as §1, §2

[3] = system: Gram-positive bacteria; experiment: In vivo antibacterial activity (general statement, effective amount)
[4] = Solubility; type: physicochemical
[5] = Acute toxicity (LD50) in ICR mice; conditions: mouse, in vivo, intravenous administration
[6] = system: Gram-negative bacteria, especially Neisseria gonorroeae and Haemophilus influenzae; experiment: In vitro antibacterial activity (general statement); type: cell-based; conditions: some Gram-negative bacteria
[7] = system: Gram-positive bacteria; experiment: as above; type: cell-based
[8] = system: Salmonella enteritidis; experiment: In vitro antibacterial activity (MIC method of the Japan Chemotherapeutic Society); type: cell-based; conditions: Salmonella enterica, read-out: MIC (minimum inhibitory concentration)
Protocol: (§3) The antibacterial activity (MIC: minimum inhibitory concentration) of 14-hydroxy-6-O-methylerythromycin A was measured according to the MIC method specified by the Japan Chemotherapeutic Society.

[9] = system: Staphylococcus pyogenes IID 689; experiment: as above; type: cell-based; conditions: Streptococcus pyogenes, IID689, read-out: MIC (minimum inhibitory concentration)
Protocol: as §3

[10] = system: Staphylococcus aureus 209P-JC; experiment: as above; type: cell-based; conditions: read-out: MIC (minimum inhibitory concentration)
Protocol: as §3

[11] = system: Branhamella catarrhalis; experiment: as above; type: cell-based; conditions: Moraxella catarrhalis, read-out: MIC (minimum inhibitory concentration)
Protocol: as §3

[12] = system: Haemophilus influenzae J-48; experiment: as above; type: cell-based; conditions: J48, read-out: MIC (minimum inhibitory concentration)
Protocol: as §3

[13] = system: Staphylococcus pneumoniae IDD 553; experiment: as above; type: cell-based; conditions: IDD553, read-out: MIC (minimum inhibitory concentration)
Protocol: as §3

[14] = system: Neisseria gonorrhoeae TCC-4; experiment: as above; type: cell-based; conditions: TCC4, read-out: MIC (minimum inhibitory concentration)
Protocol: as §3

[15] = system: Escherichia coli NIHJ JC-2; experiment: as above; type: cell-based; conditions: NIHJJC2, read-out: MIC (minimum inhibitory concentration)
Protocol: as §3

[16] = system: Bacillus subtilis ATCC 6633; experiment: as above; type: cell-based; conditions: ATCC6633, read-out: MIC (minimum inhibitory concentration)
Protocol: as §3

[17] = system: Micrococcus luteus ATCC 9341; experiment: as above; type: cell-based; conditions: ATCC9341, read-out: MIC (minimum inhibitory concentration)
Protocol: as §3

[18] = system: Staphylococcus aureus BB; experiment: as above; type: cell-based; conditions: read-out: MIC (minimum inhibitory concentration)
Protocol: as §3

[19] = system: Staphylococcus epidermidis IID 866; experiment: as above; type: cell-based; conditions: IID866, read-out: MIC (minimum inhibitory concentration)
Protocol: as §3

[20] = system: Staphylococcus aureus Smith 4; experiment: as above; type: cell-based; conditions: SMITH4, read-out: MIC (minimum inhibitory concentration)
Protocol: as §3

[21] = system: Klebsiella pneumoniae IFO 3317; experiment: as above; type: cell-based; conditions: IFO3317, read-out: MIC (minimum inhibitory concentration)
Protocol: as §3

[22] = system: Micrococcus luteus NIHJ; experiment: as above; type: cell-based; conditions: read-out: MIC (minimum inhibitory concentration)
Protocol: as §3

[23] = system: Enterococcus faecalis ATCC 8043; experiment: as above; type: cell-based; conditions: ATCC8043, read-out: MIC (minimum inhibitory concentration)
Protocol: as §3

[24] = system: Staphylococcus pneumoniae IDD 552; experiment: as above; type: cell-based; conditions: IDD552, read-out: MIC (minimum inhibitory concentration)
Protocol: as §3

SMILES: CC[C@H]1OC(=O)[C@H](C)[C@@H](O[C@H]2C[C@@](C)(OC)[C@@H](O)[C@H](C)O2)[C@H](C)[C@@H](O[C@@H]2O[C@H](C)C[C@H](N(C)C)[C@H]2O)[C@](C)(OC)C[C@@H](C)C(=O)[C@H](C)[C@@H](O)[C@]1(C)O [6-O-Methyl-erythromycin A, 6-O-methylerythromycin A]
- ED50 [1]: 0.222 mg/mouse
- ED50 [2]: 0.394 mg/mouse

SMILES: CC[C@H]1OC(=O)[C@H](C)[C@@H](O[C@H]2C[C@@](C)(OC)[C@@H](O)[C@H](C)O2)[C@H](C)[C@@H](O[C@@H]2O[C@H](C)C[C@H](N(C)C)[C@H]2O)[C@](C)(O)C[C@@H](C)C(=O)[C@H](C)[C@@H](O)[C@]1(C)O [Erythromycin A, erythromycin A]
- ED50 [1]: 1.43 mg/mouse
- ED50 [2]: 2.20 mg/mouse

SMILES: CO[C@]1(C)C[C@@H](C)C(=O)[C@H](C)[C@@H](O)[C@](C)(O)[C@@H](C(C)O)OC(=O)[C@H](C)[C@@H](O[C@H]2C[C@@](C)(OC)[C@@H](O)[C@H](C)O2)[C@H](C)[C@H]1O[C@@H]1O[C@H](C)C[C@H](N(C)C)[C@H]1O (stereo partly drawn) [14-hydroxy-6-O-methylerythromycin A]
- in vivo antibacterial activity against some Gram-positive bacteria ([3]; compared with 6-O-methylerythromycin A): stronger
- ED50 ([3]; general statement): 3 to 10 mg/kg
- Solubility ([4]; in chloroform, methanol, ethanol, acetone, ethyl acetate and pyridine): Soluble
- Solubility ([4]; in ethyl ether, n-hexane, petroleum ether, benzene and water): Poorly soluble
- LD50 [5]: 560 mg/kg
- in vitro antibacterial activity [6]: strong
- in vitro antibacterial activity [7]: strong
- MIC [8]: 25 µg/mL (≈ 32.7 µM)
- MIC [9]: 0.025 µg/mL (≈ 0.0327 µM)
- MIC [10]: 0.1 µg/mL (≈ 0.131 µM)
- MIC [11]: 0.05 µg/mL (≈ 0.0654 µM)
- MIC [12]: 3.13 µg/mL (≈ 4.1 µM)
- MIC [13]: 0.025 µg/mL (≈ 0.0327 µM)
- MIC [14]: 0.39 µg/mL (≈ 0.51 µM)
- MIC [15]: 50 µg/mL (≈ 65.4 µM)
- MIC [16]: 0.1 µg/mL (≈ 0.131 µM)
- MIC [17]: 0.025 µg/mL (≈ 0.0327 µM)
- MIC [18]: 0.2 µg/mL (≈ 0.262 µM)
- MIC [19]: 0.2 µg/mL (≈ 0.262 µM)
- MIC [20]: 0.2 µg/mL (≈ 0.262 µM)
- MIC [21]: 25 µg/mL (≈ 32.7 µM)
- MIC [22]: 0.05 µg/mL (≈ 0.0654 µM)
- MIC [23]: 0.05 µg/mL (≈ 0.0654 µM)
- MIC [24]: 0.025 µg/mL (≈ 0.0327 µM)
- ED50 [1]: 0.069 mg/mouse
- ED50 [2]: 0.234 mg/mouse
